Experimental data: PubChem BioAssay (NCI)
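96-well plates; 48 h exposure; 5 concentrations. Endpoints by linear interpolation between flanking doses. Not reached: highest tested concentration assigned. TGI marks complete inhibition of growth.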

Columns and labels:
Assay in all cases: inhibition of tumour cell growth, NCI panel, 48 h
[1] = test system: SK-MEL-28 melanoma
[2] = test system: SF-295 CNS
[3] = test system: HCT-116 colon
[4] = test system: NCI/ADR-RES ovarian
[5] = test system: HCT-15 colon
[6] = test system: M14 melanoma
[7] = test system: RXF 393 renal
[8] = test system: HOP-62 NSCLC
[9] = test system: A498 renal
[10] = test system: PC-3 prostate
[11] = test system: SNB-19 CNS
[12] = test system: A549 NSCLC

Structure (SMILES) | TGI [1] [µM] | TGI [2] [µM] | TGI [3] [µM] | TGI [4] [µM] | TGI [5] [µM] | TGI [6] [µM] | TGI [7] [µM] | TGI [8] [µM] | TGI [9] [µM] | TGI [10] [µM] | TGI [11] [µM] | TGI [12] [µM]
Fc1nc(-c2c3ccccc3c3sc4ccccc4n23)nc(N2CCOCCOCCOCCOCC2)n1 | > 100 | > 100 | > 100 | > 100 | > 100 | > 100 | 51.6 | > 100 | > 100 | > 100 | > 100 | > 100
CCC(=O)NC(NNS(=O)(=O)c1ccc(C)cc1)(C(F)(F)F)C(F)(F)F | 61.5 | > 100 | > 100 | 85.2 | > 100 | > 100 | 82.9 | > 100 | > 100 | > 100 | > 100 | > 100
CCCCCCCCC#CCCCCCCC(F)C(=O)O (stereo not drawn) | > 100 | > 100 | > 100 | > 100 | > 100 | > 100 | > 100 | > 100 | > 100 | > 100 | > 100 | > 100
COc1cc2c(cc1OCCCN1CCOCC1)N=C[C@@H]1CCCN1C2=O | 29.1 | 42.1 | 54.3 | > 100 | 74.2 | 29.1 | 8.13 | 62.8 | 30.1 | 72.4 | > 100 | > 100
